Measurements taken from patent US6613762B2, “Gambogic acid, analogs and derivatives as activators of caspases and inducers of apoptosis” (Cytovia, Inc., priority 1999, dated 2003).
Read-outs that look alike come from different tables or passages of the source.

Tests used:
[1] = system: caspase cascade, human breast cancer cell line T-47D; experiment: Caspase cascade activation assay (Example 90), T-47D; assay type: cell-based; settings: 24 h incubation; for EC50: Homo sapiens, T47D, sigmoidal dose-response, read-out: T-47D EC50 (caspase activation potency)
Experimental: (§1) Human breast cancer cell lines T-47D and ZR-75-1, human prostate cancer cell line PC-3, human leukemia cancer cell line HL-60 and human non-transformed fibroblast cell line MRC-5 cells were grown according to media component mixtures designated by The American Type Culture Collection+10% FCS (Life Technologies, Inc.), in a 5% CO2-95% humidity incubator at 37° C. T-47D, ZR-75-1 and PC-3 cells were maintained at a cell density between 30 and 80% confluency and for HL-60 at a cell density of 0.1 to 0.6×10^6 cells/m. Cells were harvested at 600× g and resuspended at 0.65×10^6 cells/ml into appropriate media +10% FCS. […] The samples were mixed by agitation and incubated at room temperature.
(§2) The EC50 (nM) was determined by a sigmoidal dose-response calculation (Prism 2.0, GraphPad Software Inc.).

[2] = system: caspase cascade, human breast cancer cell line ZR-75-1; experiment: Caspase cascade activation assay (Example 90), ZR-75-1; assay type: cell-based; settings: Homo sapiens, ZR-75-1; 24 h incubation; sigmoidal dose-response; read-out: ZR-75-1 EC50 (caspase activation potency)
Experimental: as §1, §2

[3] = system: caspase cascade, human prostate cancer cell line PC-3; experiment: Caspase cascade activation assay (Example 90), PC-3; assay type: cell-based; settings: 24 h incubation; for EC50: Homo sapiens, sigmoidal dose-response, read-out: PC-3 EC50 (caspase activation potency)
Experimental: as §1, §2

caspase cascade = experiment: Caspase cascade activation assay (Example 90), MRC-5; assay type: cell-based, human; settings: human
Experimental: as §1, §2

T-47D cells = experiment: Inhibition of cell proliferation (GI50) and cell death (LC50), T-47D; assay type: cell-based; settings: Homo sapiens, T47D, 48 h; for CC50: read-out: LC50 (dose for 50% cell death); for GI50: read-out: GI50 (dose for 50% inhibition of cell proliferation)
Experimental: (§3) T47D, ZR-75-1, PC-3, human prostate cancer cell line DU-145, human non-small cell lung cancer cell line A-549, human small cell lung cancer cell line SHP-77, HL-60 and MRC-5 cells were grown and harvested as in Example 90. […] The samples were mixed by agitation and incubated at 37° C. for 2-4 h in a 5% CO2-95% humidity incubator. […] This determines the possible background absorbance of the test compounds. No absorbance for gambogic acid or its analogs or derivatives was found at 490 nm. After the 2-4 h incubation, the samples were read for absorbance as above (ATest).
(§4) Baseline for GI50 (dose for 50% inhibition of cell proliferation) and LC50 (dose for 50% cell death) of initial cell numbers was determined by adding an aliquot of 90 μl of cells or 90 μl of media, respectively, to wells of a 96-well microtiter plate containing 10 μl of a 10% DMSO in RPMI-1640 media solution. […] The samples were mixed by agitation and incubated at 37° C. for 2-4 h in a 5% CO2-95% humidity incubator. Absorbance was read as above, (AT=0) defining absorbance for initial cell number used as baseline in GI50 determinations and (Amin) defining absorbance for media alone used as baseline in LC50 determinations.
(§5) GI50 (dose for 50% inhibition of cell proliferation)
(§6) LC50 (dose for 50% cell death)
(§7) 50=100×[(ATest−Amin)/(AT=0−Amin)]

PC-3 cells = experiment: Inhibition of cell proliferation (GI50) and cell death (LC50), PC-3; assay type: cell-based
Experimental: as §3, §4, §5, §6, §7

[4] = system: human prostate cancer cell line DU-145; experiment: Inhibition of cell proliferation (GI50) and cell death (LC50), DU-145; assay type: cell-based
Experimental: as §3, §4, §5, §6, §7

[5] = Inhibition of cell proliferation (GI50) and cell death (LC50), MRC-5; assay type: cell-based; settings: human
Experimental: as §3, §4, §5, §6, §7

MRC-5 cells = experiment: as above; assay type: cell-based; settings: Homo sapiens, MRC5; MRC-5, 48 h; read-out: GI50 (dose for 50% inhibition of cell proliferation)
Experimental: as §3, §4, §5, §6, §7

[6] = system: caspase cascade, T-47D cells; experiment: Known antineoplastic compounds as caspase cascade activators (Example 92), T-47D; assay type: cell-based, human; settings: 10 μM final, 24 h; ratio of net RFU to control; ratio around 1 = not an efficient activator
Experimental: (§8) An aliquot of 45 μl of cells was added to a well of a 96-well microtiter plate containing 5 μl of a 10% DMSO in RPMI-1640 media solution containing 100 μM of test compounds (10 μM final). An aliquot of 45 μl of cells was added to a well of a 96-well microtiter plate containing 5 μl of a 10% DMSO in RPMI-1640 media solution without test compound as the control sample. The samples were mixed by agitation and then incubated at 37° C. for 24 h in a 5% CO2-95% humidity incubator. After incubation, the samples were removed from the incubator and 50 μl of a solution containing 20 μM of N-(Ac-DEVD)-N′-ethoxycarbonyl-R110 fluorogenic substrate (SEQ ID NO:1) (Cytovia, Inc.), 20% sucrose (Sigma), 20 mM DTT (Sigma), 200 mM NaCl (Sigma), 40 mM Na PIPES buffer pH 7.2 (Sigma), and 500 μg/ml lysolecithin (Calbiochem) was added. The samples were mixed by agitation and incubated for 3 h at room temperature. Using a fluorescent plate reader (Model 1420 Wallac Instruments), an initial reading (T=0) was made approximately 1-2 min. after addition of the substrate solution, employing excitation at 485 nm and emission at 530 nm, to determine the background fluorescence of the control sample. After the 3 h incubation, the samples were read for fluorescence as above (T=3 h).
(§9) The Relative Fluorescence Unit values (RFU) were used to calculate the sample readings as follows:
(§10) The activity in caspase cascade activation was determined by the ratio of the net RFU value for test compounds to that of control samples.

[7] = system: caspase cascade, PC-3 cells; experiment: Known antineoplastic compounds as caspase cascade activators (Example 92), PC-3; assay type: cell-based, human; settings: 10 μM final, 24 h; ratio of net RFU to control; ratio around 1 = not an efficient activator
Experimental: as §8, §9, §10

KB cell line = settings: cited from earlier work
KB-V1 cell line = settings: cited from earlier work
ZR-75-1 cells = experiment: Inhibition of cell proliferation (GI50) and cell death (LC50), ZR-75-1; assay type: cell-based; settings: Homo sapiens, ZR-75-1, 48 h
Experimental: as §3, §4, §5, §6, §7

[8] = system: human non-small cell lung cancer cell line A-549; experiment: Inhibition of cell proliferation (GI50) and cell death (LC50), A-549; assay type: cell-based; settings: Homo sapiens
Experimental: as §3, §4, §5, §6, §7

[9] = system: human small cell lung cancer cell line SHP-77; experiment: Inhibition of cell proliferation (GI50) and cell death (LC50), SHP-77; assay type: cell-based; settings: Homo sapiens
Experimental: as §3, §4, §5, §6, §7

HL-60 cells = experiment: Inhibition of cell proliferation (GI50) and cell death (LC50), HL-60; assay type: cell-based; settings: Homo sapiens, HL-60, 48 h
Experimental: as §3, §4, §5, §6, §7

[10] = system: caspase cascade, human leukemia cancer cell line HL-60; experiment: Caspase cascade activation assay (Example 90), HL-60; assay type: cell-based; settings: Homo sapiens, HL-60; 24 h incubation; sigmoidal dose-response; read-out: HL-60 EC50 (caspase activation potency)
Experimental: as §1, §2

[11] = ratio of net RFU of test compound to control, 0.16 to 10 μM
[12] = Homo sapiens, PC-3, 48 h, read-out: LC50 (dose for 50% cell death)
[13] = Homo sapiens, PC-3, 48 h; read-out: GI50 (dose for 50% inhibition of cell proliferation)
[14] = Homo sapiens, DU-145, 48 h, read-out: LC50 (dose for 50% cell death)
[15] = Homo sapiens, DU-145, 48 h; read-out: GI50 (dose for 50% inhibition of cell proliferation)
[16] = reported by Lin et al., Magn. Reson. Chem. 31:340-347 (1993)
[17] = read-out: LC50 (dose for 50% cell death)
[18] = read-out: GI50 (dose for 50% inhibition of cell proliferation)

## CC(C)=CCCC1(C)C=Cc2c(O)c3c(c(CC=C(C)C)c2O1)OC12C(=CC4CC1C(C)(C)OC2(C/C=C(/C)C(=O)N1CCN(C)CC1)C4=O)C3=O (stereo not drawn) [Example 9, Gambogyl (4-Methylpiperazine)]
[1]
  EC50: 990 nM
[2]
  EC50: 2050 nM
[3]
  EC50: 5900 nM
Caspase cascade
  EC50 at 24 h: 1900 nM

## CC(C)=CCC/C(C)=C/Cc1c(O)c(CC=C(C)C)c2c(c1O)C(=O)C1=CC3CC4C(C)(C)OC(C/C=C(/C)C=O)(C3=O)C14O2 (stereo not drawn) [Example 3, Gambogenin]
[1]; [11]
  T-47D Ratio (caspase activity): 7.0
[3]; [11]
  PC-3 Ratio (caspase activity): 2.9
T-47D cells
  CC50: 500 nM
T-47D cells; T-47D
  GI50: 500 nM
PC-3 cells; [12]
  CC50: 5000 nM
PC-3 cells; [13]
  GI50: 5000 nM
[4]; [14]
  CC50: 5000 nM
[4]; [15]
  GI50: 2000 nM
[5]
  CC50 at 48 h: 5000 nM
MRC-5 cells
  GI50: 3000 nM

## CN(Cc1cnc2nc(N)nc(N)c2n1)c1ccc(C(=O)N[C@@H](CCC(=O)O)C(=O)O)cc1 [Methotrexate]
[6]
  Caspase cascade activation ratio, T-47D: 0.8
[7]
  Caspase cascade activation ratio, PC-3: 0.7

## CC(C)=CCc1c2c(c(O)c3c1OC14C(=CC5CC1C(C)(C)OC4(C/C=C(\C)CO)C5=O)C3=O)C=CC(C)(C)O2 (stereo not drawn) [isomorellinol, reference compound]
KB cell line; [16]
  Cytotoxicity against KB cell line: cytotoxic
KB-V1 cell line; [16]
  Cytotoxicity against KB-V1 cell line: cytotoxic

## CC[C@@]1(O)C(=O)OCc2c1cc1n(c2=O)Cc2cc3ccccc3nc2-1 [Camptothecin]
[6]
  Caspase cascade activation ratio, T-47D: 0.7
[7]
  Caspase cascade activation ratio, PC-3: 0.6

## COC(=O)/C(C)=C\CC12OC(C)(C)C3CC(C=C4C(=O)c5c(OC)c6c(c(CC=C(C)C)c5OC431)OC(C)(CCC=C(C)C)C=C6)C2=O (stereo not drawn) [Example 6, Methyl-6-methoxy-gambogate]
[1]
  EC50: 2800 nM
[3]
  EC50: 5000 nM
T-47D cells
  CC50: 80 nM
T-47D cells; T-47D
  GI50: 50 nM
ZR-75-1 cells; [17]
  CC50: 500 nM
ZR-75-1 cells; [18]
  GI50: 400 nM
PC-3 cells; [12]
  CC50: 500 nM
PC-3 cells; [13]
  GI50: 500 nM
[4]; [14]
  CC50: 900 nM
[4]; [15]
  GI50: 500 nM
[8]; A549, 48 h, read-out: LC50 (dose for 50% cell death)
  CC50: 900 nM
[8]; A549, A-549, 48 h, read-out: GI50 (dose for 50% inhibition of cell proliferation)
  GI50: 500 nM
[9]; SHP77, 48 h, read-out: LC50 (dose for 50% cell death)
  CC50: 500 nM
[9]; SHP77, SHP-77, 48 h, read-out: GI50 (dose for 50% inhibition of cell proliferation)
  GI50: 500 nM
HL-60 cells; [17]
  CC50: 800 nM
HL-60 cells; [18]
  GI50: 100 nM
[5]
  CC50 at 48 h: 500 nM
MRC-5 cells
  GI50: 500 nM

## COc1cc([C@@H]2c3cc4c(cc3[C@@H](O[C@@H]3O[C@@H]5CO[C@@H](C)O[C@H]5[C@H](O)[C@H]3O)[C@H]3COC(=O)[C@H]23)OCO4)cc(OC)c1O [Etoposide]
[6]
  Caspase cascade activation ratio, T-47D: 1.0
[7]
  Caspase cascade activation ratio, PC-3: 0.8

## CC(C)=CCC/C(C)=C/Cc1c(O)c(CC=C(C)C)c2c(c1O)C(=O)C1=CC3CC4C(C)(C)OC(C/C=C(/C)C(=O)O)(C3=O)C14O2 (stereo not drawn) [Example 2, Gambogenic Acid]
[1]
  EC50: 310 nM
[2]
  EC50: 1160 nM
[3]
  EC50: 1350 nM
[10]
  EC50: 340 nM
Caspase cascade; 24 h incubation, sigmoidal dose-response, read-out: MRC-5 EC50 (caspase activation potency)
  EC50: 1260 nM
T-47D cells; T-47D
  GI50: 500 nM
  CC50: 500 nM
PC-3 cells; [13]
  GI50: 3000 nM
PC-3 cells; Homo sapiens, PC-3, 48 h; read-out: LC50 (dose for 50% cell death)
  CC50: 5000 nM
[4]; [15]
  GI50: 600 nM
[4]; Homo sapiens, DU-145, 48 h; read-out: LC50 (dose for 50% cell death)
  CC50: 5000 nM
[5]; MRC-5, 48 h, read-out: LC50 (dose for 50% cell death)
  CC50: 5000 nM
MRC-5 cells
  GI50: 500 nM

## CC(C)=CCCC1(C)C=Cc2c(O)c3c(c(CC=C(C)C)c2O1)OC12C(=CC4CC1C(C)(C)OC2(C/C=C(\C)C(=O)O)C4=O)C3=O (stereo not drawn) [Example 18, Isogambogic Acid]
KB cell line
  Cytotoxicity against KB cell line: cytotoxic
KB-V1 cell line
  Cytotoxicity against KB-V1 cell line: cytotoxic

## O=c1[nH]cc(F)c(=O)[nH]1 [5-fluorouracil]
[6]
  Caspase cascade activation ratio, T-47D: 0.8
[7]
  Caspase cascade activation ratio, PC-3: 0.7

## COc1cccc2c1C(=O)c1c(O)c3c(c(O)c1C2=O)C[C@@](O)(C(=O)CO)C[C@@H]3O[C@H]1C[C@H](N)[C@H](O)[C@H](C)O1 [Doxorubicin]
[6]
  Caspase cascade activation ratio, T-47D: 1.3
[7]
  Caspase cascade activation ratio, PC-3: 1.1

## CC[C@]1(O)C[C@@H]2CN(CCc3c([nH]c4ccccc34)[C@@](C(=O)OC)(c3cc4c(cc3OC)N(C)[C@H]3[C@@](O)(C(=O)OC)[C@H](OC(C)=O)[C@]5(CC)C=CCN6CC[C@]43[C@@H]65)C2)C1 [Vinblastine]
[6]
  Caspase cascade activation ratio, T-47D: 0.9
[7]
  Caspase cascade activation ratio, PC-3: 0.8

## CC(=O)O[C@H]1C(=O)[C@@]2(C)[C@H]([C@H](OC(=O)c3ccccc3)[C@]3(O)C[C@H](OC(=O)[C@H](O)[C@@H](NC(=O)c4ccccc4)c4ccccc4)C(C)=C1C3(C)C)[C@]1(OC(C)=O)CO[C@@H]1C[C@@H]2O [Taxol]
[6]
  Caspase cascade activation ratio, T-47D: 0.9
[7]
  Caspase cascade activation ratio, PC-3: 0.7
